Results: US20180362485A1, “N-HYDROXYFORMAMIDE COMPOUNDS AND COMPOSITIONS COMPRISING THEM FOR USE AS BMP l, TLL1 AND/OR TLL2 INHIBITORS” (GlaxoSmithKline Intellectual Property (No. 2) Limited, priority 2015, published 2018)

Columns and labels:
[1] = target: T1, human TLL2 (Homo sapiens, UniProt Q9Y6L7); test: Enzyme inhibition assay for human TLL2; assay type: biochemical; details: 18 nM TLL2, 5 μM promyostatin peptide substrate; read-out: pIC50, TLL2 enzyme inhibition assay (converted)
T1 construct: amino acids 26-1015 of human TLL2 (NM_012465); made in house
T1 sequence (Q9Y6L7 150-1015): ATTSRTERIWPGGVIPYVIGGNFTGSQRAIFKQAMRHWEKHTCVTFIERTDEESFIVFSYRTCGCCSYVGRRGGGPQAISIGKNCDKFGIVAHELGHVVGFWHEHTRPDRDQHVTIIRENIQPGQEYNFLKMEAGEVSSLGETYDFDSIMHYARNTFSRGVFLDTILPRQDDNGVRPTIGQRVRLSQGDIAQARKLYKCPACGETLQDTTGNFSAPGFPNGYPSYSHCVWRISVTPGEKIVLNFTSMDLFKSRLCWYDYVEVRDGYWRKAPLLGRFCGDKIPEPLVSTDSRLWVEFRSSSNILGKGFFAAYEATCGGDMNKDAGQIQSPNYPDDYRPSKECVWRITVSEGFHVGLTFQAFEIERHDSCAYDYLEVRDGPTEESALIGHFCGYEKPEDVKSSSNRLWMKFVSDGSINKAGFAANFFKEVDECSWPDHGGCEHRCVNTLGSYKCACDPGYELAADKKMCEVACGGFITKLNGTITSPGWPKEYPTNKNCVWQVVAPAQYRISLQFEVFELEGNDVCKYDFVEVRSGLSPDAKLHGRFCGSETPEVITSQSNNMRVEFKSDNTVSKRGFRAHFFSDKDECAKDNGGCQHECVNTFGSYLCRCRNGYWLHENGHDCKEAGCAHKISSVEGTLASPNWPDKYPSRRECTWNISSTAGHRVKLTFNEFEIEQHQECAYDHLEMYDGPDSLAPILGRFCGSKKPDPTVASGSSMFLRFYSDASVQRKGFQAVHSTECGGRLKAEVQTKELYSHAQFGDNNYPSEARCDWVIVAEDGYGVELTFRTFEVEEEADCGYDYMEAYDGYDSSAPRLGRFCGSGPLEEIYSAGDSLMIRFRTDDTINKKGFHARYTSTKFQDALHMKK
From the text: Buffer components are purchased from Sigma-Aldrich (St. Louis, Mo.) or an equivalent supplier. The promyostatin peptide substrate is custom synthesized by American Peptide Company (Sunnyvale, Calif.) using the myostatin protein sequence (Uniprot accession number 014793) surrounding the cleavage site reviewed in Hopkins, D. R., et al., 2007 Matrix Biology, 26, 508-523. The procollagen peptide substrate used in the high enzyme BMP1 cleavage assay is custom synthesized by 21st Century Biochemicals (Marlboro, Mass.) using the procollagen Iα protein sequence (Uniprot accession number P02452) surrounding the cleavage site reviewed in Hopkins, D. R., et al., 2007 Matrix Biology, 26, 508-523.
The DNA sequence encoding amino acids 26-1015 of human TLL2 (NM_012465) is PCR amplified from DNA template with the human RAGE signal sequence at the N-terminus and Avi-6×His epitope tags at the C-terminus ([…]). […]
Inhibition of human TLL1 and TLL2 recombinant enzymes is measured in 10 ul endpoint assays in 384-well format using the same promyostatin peptide substrate employed in the above Enzyme Inhibition Assay for human BMP1. […] TLL1 and TLL2 reactions are quenched with 5 μl of 0.5 M EDTA and plates are read on a ViewLux (Perkin Elmer) multilabel plate reader using a 480 nm excitation filter and 540 nm emission filter. […]

[2] = tested on: deposition of mature collagen; test: Cell-based inhibition assay of mature collagen deposition (immunostaining); details: Cardiac fibroblast; human cardiac fibroblasts, immunostaining of mature collagen I; read-out: pIC50, mature collagen cellular inhibition assay (converted)
Protocol: An adaptation of the collagen deposition assay described by Chen, C. Z. C., et al., British Journal of Pharmacology, 2009, 158, 1196-1209 is used to examine effect of compounds on procollagen I processing and collagen deposition. In the adapted assay, human cardiac fibroblasts are utilized. Processing of procollagen I is determined by a PICP ELISA assay and deposition of mature collagen is determined by immunostaining.
Human cardiac fibroblasts are cultured and maintained until passage 6 in FGM-3 media (Lonza, #CC-3132) in a 37° C. humidified incubator with 5% CO2. They are then seeded in 96-well black wall, clear bottom plates at 10,000 to 15,000 cells per well in eagle's minimum essential media (EMEM, ATCC #30-2003) containing 10% fetal bovine serum (FBS, Life Technologies #10082147), 1% Glutamax (Life Technologies #35050061) and 1% Penicillin and Streptomycin (Life Technologies #15070063). These cultures are placed in 37° C. incubator. The next day, media is removed by aspiration and cells are rinsed with phosphate buffered saline. Crowding media (also called ficoll media) is prepared by adding 112.5 mg/ml of ficoll70 and 75 mg/ml ficoll400 (GE healthcare #17-0310-10 and 17-0300-10, respectively), 100 μM ascorbic acid, 1% Glutamax and 1% Penicillin and Streptomycin to EMEM media. Test compounds (dissolved in DMSO) are diluted into crowding media and then added to the cells. Final concentration of DMSO in crowding media is less than 0.3%. Cells are treated for 24 to 48 hr in a 37° C. incubator. At the end of the treatment period, cell media are collected. The level of PICP in the media is determined by a PICP ELISA assay (Quidel #8003) following the manufacturer's protocol. Potencies of test compounds are calculated by fitting PICP levels, relative to untreated controls, to log (inhibitor) vs. response equation using Graphpad Prism software 5.0 and expressed as pIC50.
For some compounds, deposition of mature collagen is measured by immunostaining in addition to PICP levels. At the end of the treatment period, cells on culture plate are fixed with 100% methanol (prechilled to −20° C.) for 10 min. Then the cells are immunostained with mouse anti-mature collagen I antibody (1:500 dilution, Sigma#C2456), anti-mouse secondary antibody Alexa647 (1:500 dilution, Invitrogen#A21236) and Hoechst (for nuclei, 2 μg/ml, Invitrogen#H3596). Fluorescent image acquisition is done using the Operetta High Content Imaging system (Perkin Elmer). For each image field, the intensity of mature collagen staining is normalized with the number of nuclei. Normalized collagen levels are used to calculate the potency of test compounds with Graphpad Prism software, as described above.

- IC50 [1]: < 794 nM
SMILES: CCCCC[C@@H](C(=O)NCNC(=O)c1ccc(-c2ccccc2)o1)[C@@H](CC)N(O)C=O [WO2015/104684 Example 24, N—(((R)-2-((R)-1-(N-hydroxyformamido)propyl)heptanamido)methyl)-5-phenylfuran-2-carboxamide]
- IC50 [2]: < 1000 nM
